Measured values taken from patent US11801232B2, “Targeting of ARID1A-deficient cancers by inhibiting de novo pyrimidine synthesis pathway” (YALE UNIVERSITY, priority 2019, dated 2023).
Like-named read-outs stand apart in the source and are kept apart here.

Columns and labels:
Assay in all cases: Cytotoxicity (SRB) assay with CalcuSyn combination analysis
Type in all cases: cell-based
ES2 cells = conditions: Homo sapiens, ES2 parental, read-out: Dm
Description: Cytotoxicity assay. Cells were seeded in 96-well plates, with 2000 cells in 100 μL/well, and cultured for 24 h. The cells were treated with serial dilutions of drugs or without drug for an additional 72 h. Cell number was determined using a sulforhodamine B (SRB) assay, as previously described^23. Briefly, cells were fixed with 20% trichloroacetic acid (TCA), air-dried, and stained with 0.4% SRB dissolved in 1% acetic acid. After washing, protein-bound dye was solubilized with 10 mM unbuffered Tris-base solution (pH 10.5) and detected at 510 nm using a microplate reader. Percentage of cell-growth was calculated using the following formula: % cell growth=[(Absorbance sample)/(Absorbance untreated)]×100 […] Datasets from at least three independent experiments were combined, and each table cell contains the mean value±SD. SCR, ES2-shScrambled. N/A, not applicable. Statistical analysis was carried out by one-way ANOVA with Bonferroni's post-hoc test, and differences were considered significant at **P<0.01 and ***P<0.001 as compared to the ES2 parental group with the same drug treatment. […] CIwt value was calculated using the formula: […] Datasets from at least three independent experiments were combined, and each table cell contains the mean value±SD. Teri, teriflunomide. SCR, ES2-shScrambled. N/A, not applicable. Statistical analysis was carried out by one-way ANOVA with Bonferroni's post-hoc test, and differences were considered significant at ***P<0.001 as compared to the ES2 parental group with the same drug treatment.

[1] = system: ES2-shScrambled (SCR) cells; conditions: Homo sapiens, read-out: Dm
Description: (§1) Short Hairpin RNA (shRNA)-Mediated Knockdown and Expression of ARID1A in ovarian and endometrial carcinoma cells. shRNA lentiviral supernatants were produced using standard protocols, as previously described^8. Vectors were transfected into HEK293FT cells using X-tremeGENE 9 DNA Transfection Reagent (from Roche). Retroviral supernatants isolated at 48 h were diluted 1:1 in culture medium and used to infect ARID1A-wildtype ES2 and KLE cell lines. Stably transfected subclones were expanded using puromycin (from Dot Scientific) drug selection. For expression of ARID1A in the ARID1A-mutant HEC-1-A cell line, pCIN4-HA-ARID1A was transfected using X-tremeGENE 9 DNA Transfection Reagent (from Roche), followed by selection with G418 (from Gibco). For expression of ARID1A in the ARID1A-mutant SKOV3 and OVISE cell lines, V5/His-tagged pLenti-puro-LacZ and pLenti-puro-ARID1A were transfected using lentivirus. Lentivirus was produced using HEK293FT cells with the second-generation packaging system pSPAX2 (Addgene plasmid) and pMD2.G (Addgene plasmid). Stably transfected subclones were expanded using puromycin and blasticidin (Gibco) drug selection.
(§2) Cytotoxicity assay. Cells were seeded in 96-well plates, with 2000 cells in 100 μL/well, and cultured for 24 h. The cells were treated with serial dilutions of drugs or without drug for an additional 72 h. Cell number was determined using a sulforhodamine B (SRB) assay, as previously described^23. Briefly, cells were fixed with 20% trichloroacetic acid (TCA), air-dried, and stained with 0.4% SRB dissolved in 1% acetic acid. After washing, protein-bound dye was solubilized with 10 mM unbuffered Tris-base solution (pH 10.5) and detected at 510 nm using a microplate reader. Percentage of cell-growth was calculated using the following formula: % cell growth=[(Absorbance sample)/(Absorbance untreated)]×100
(§3) Using CalcuSyn software (Biosoft), dose-effect curves were generated, and drug concentrations corresponding to a 50% decrease in cell number (IC50) were determined.
(§4) Drug concentrations corresponding to a median effect (Dm) are shown for each treatment; teriflunomide concentration is shown for combination (Combo) treatment at a 10:1 fixed molar ratio of two drugs, teriflunomide and AZD6738. […] Datasets from at least three independent experiments were combined, and each table cell contains the mean value±SD. SCR, ES2-shScrambled. N/A, not applicable. Statistical analysis was carried out by one-way ANOVA with Bonferroni's post-hoc test, and differences were considered significant at **P<0.01 and ***P<0.001 as compared to the ES2 parental group with the same drug treatment.
(§5) Drug concentrations (in μM for teriflunomide, in nM for […]) corresponding to median effect (Dm) are shown for each treatment; teriflunomide concentration is shown for combination (Combo) treatment at a 200:1 fixed molar ratio of the two drugs, teriflunomide and VX-970. […] CIwt<0.8, =0.8 to 1.2, and >1.2 indicates synergism, an additive effect, and antagonism, respectively. CIwt value was calculated using the formula: CIwt=(ED50+2ED75+3ED90)/6. Datasets from at least three independent experiments were combined, and each table cell contains the mean value±SD. Teri, teriflunomide. SCR, ES2-shScrambled. N/A, not applicable. Statistical analysis was carried out by one-way ANOVA with Bonferroni's post-hoc test, and differences were considered significant at ***P<0.001 as compared to the ES2 parental group with the same drug treatment.

ES2 shARID1A (a) cells = conditions: Homo sapiens, read-out: Dm
Description: as §1, §2, §3, §4, §5

ES2 shARID1A (b) cells = conditions: Homo sapiens, read-out: Dm
Description: as §1, §2, §3, §4, §5

JHOC-5 cells = conditions: Homo sapiens, Table 5, single drug, median effect, read-out: Dm
Description: as §2, §3
(§6) The drug concentrations corresponding to a median effect (Dm) are shown for each treatment; teriflunomide concentration is shown for combination (Combo) treatment at a 10:1 fixed molar ratio of two drugs, teriflunomide and AZD6738. […] CIwt<0.8, =0.8 to 1.2, and >1.2 indicates synergism, an additive effect, and antagonism, respectively. A CIwt value was calculated using the formula: CIwt=(ED50+2ED75+3ED90)/6. Datasets from at least three independent experiments were combined, and each table cell contains the mean value±SD.

HEC-1A cells = conditions: Homo sapiens, Table 6, single drug, median effect, read-out: Dm
Description: as §2, §3, §6

A2780 cells = conditions: Homo sapiens, Table 4, single drug, median effect, read-out: Dm
Description: as §2, §3
as §6, with “Drug concentrations corresponding” for “The drug concentrations corresponding”, “shown for a combination (Combo)” for “shown for combination (Combo)”, “and >1.2 indicate synergism, an” for “and >1.2 indicates synergism, an”

[2] = ES-2, Table 1, single drug, median effect
[3] = Table 1, single drug, median effect

SMILES | IC50 (ES2 cells; [2]) [µM] | IC50 [1, 3] [µM] | IC50 (ES2 shARID1A (a) cells; [3]) [µM] | IC50 (ES2 shARID1A (b) cells; [3]) [µM] | IC50 (JHOC-5 cells) [µM] | IC50 (HEC-1A cells) [µM] | IC50 (A2780 cells) [µM] | IC50 (ES2 cells; ES-2, Table 2, teriflunomide alone) [µM] | IC50 ([1]; Table 2, teriflunomide alone) [µM] | IC50 (ES2 shARID1A (a) cells; Table 2, teriflunomide alone) [µM] | IC50 (ES2 shARID1A (b) cells; Table 2, teriflunomide alone) [µM]
C[C@@H]1COCCN1c1cc(C2([S@](C)(=N)=O)CC2)nc(-c2cc[nH]c3nccc2-3)n1 [AZD6738] | 1.23 ± 0.16 | 1.18 ± 0.17 | 0.2 ± 0.01 | 0.24 ± 0.03 | 2.91 ± 0.76 | 4.47 ± 0.45 | 5.54 ± 1.06 | – | – | – | –
C/C(O)=C(\C#N)C(=O)Nc1ccc(C(F)(F)F)cc1 [Teriflunomide, teriflunomide] | 26.4 ± 2.18 | 28.2 ± 1.59 | 17.9 ± 1.32 | 16.8 ± 0.92 | 25.2 ± 1.85 | 50.5 ± 4.99 | 18.9 ± 1.39 | 29.1 ± 0.54 | 26.7 ± 1.26 | 15.6 ± 1.79 | 15.5 ± 3.11
